Test results as given in patent US8063108B2, “Method for modulating microbial quorum sensing” (priority 2004, dated 2011).

What was measured:
Type in all cases: cell-based
TraR = molecular target: T1, TraR (Agrobacterium tumefaciens, UniProt P33905); test: Agrobacterium tumefaciens KYC55 β-Galactosidase induction plate assay; details: 1 μl of 0.1 mg/ml spotted
T1 construct: expressed in transfected cells; host or cells: Agrobacterium tumefaciens KYC55
Description: (§1) Additional screens were performed as described above, except fluorescence was measured using the Wallac Victor2 plate reader with an excitation wavelength of 485 nm and emission detection at 515 nm. E. coli reporter induction assays were performed as described for P. putida. Chromobacterium violaceum CV026 and Agrobacterium tumefaciens KYC55 induction assays were performed by applying compounds to a lawn of bacteria on agar plates. C. violaceum CV026 inhibition assays were performed by applying compounds to a lawn of bacteria on agar plates containing synthetic N-3-oxohexanoyl-L-homoserine lactone.
Agrobacterium tumefaciens KYC55 is a mutant strain that is unable to produce AHLs. Exogenous AHLs must be added to induce the LuxR-type transcriptional regulator which is designated TraR in this strain. This strain contains a plasmid that encodes β-Galactosidase under the transcriptional control of TraR. Activation of TraR is indicated by the production of β-Galactosidase. Cultures were grown overnight at 28° C. in AMA broth. Induction assays were performed by applying compounds to a lawn of bacteria on AMA agar plates containing […] of X-Gal per ml. […] Activation of quorum sensing was qualitatively measured by observing the production the blue pigment that results from β-Galactosidase cleavage of the X-gal substrate in areas where compounds were applied. […]

CviR = molecular target: T2, CviR (Chromobacterium violaceum, UniProt D3W065); test: Chromobacterium violaceum CV026 violacein plate assay; details: 1 μl of 0.1 mg/ml spotted
T2 construct: endogenous in cells; host or cells: Chromobacterium violaceum CV026
T2 sequence (D3W065 1-265): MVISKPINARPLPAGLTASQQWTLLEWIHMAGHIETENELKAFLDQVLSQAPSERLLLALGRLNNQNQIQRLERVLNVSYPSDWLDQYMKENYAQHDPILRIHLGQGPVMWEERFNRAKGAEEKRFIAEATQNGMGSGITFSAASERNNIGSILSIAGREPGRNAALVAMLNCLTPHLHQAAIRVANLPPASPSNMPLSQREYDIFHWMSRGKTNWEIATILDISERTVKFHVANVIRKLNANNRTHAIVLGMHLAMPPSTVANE
Description: as §1
Chromobacterium violaceum CV026 is a mutant that is unable to produce AHLs. Exogenous AHLs must be added to induce the LuxR-type transcriptional regulator which is designated CviR in this strain. Activation of CviR is indicated by the production of violacein. Cultures were grown overnight at 28° C. in LB media. […] Inhibition of quorum sensing was qualitatively measured by observing the lack of production of violacein in areas where compounds were applied. […] Activation of quorum sensing was qualitatively measured by observing the production of violacein in areas where compounds were applied. […]

[1] = molecular target: T3, LasR transcriptional activator (Pseudomonas aeruginosa, UniProt P25084); test: P. putida F117 pKRC12 lasB-GFP reporter assay (secondary screens); details: compounds 10 μM, relative fluorescence (fluorescence divided by absorbance at 600 nm) as percent of AHL induced control; for % Activity of AHL Standard, 3 oxo C10HSL: 3oxoC10HSL 100 nM; for % Activity of AHL Standard, 3 oxo C12HSL: 3oxoC12HSL 50 nM
T3 construct: expressed in transfected cells; host or cells: Pseudomonas putida F117 carrying plasmid pKRC12 (lasR, PlasB-gfp)
T3 sequence (P25084 whole entry): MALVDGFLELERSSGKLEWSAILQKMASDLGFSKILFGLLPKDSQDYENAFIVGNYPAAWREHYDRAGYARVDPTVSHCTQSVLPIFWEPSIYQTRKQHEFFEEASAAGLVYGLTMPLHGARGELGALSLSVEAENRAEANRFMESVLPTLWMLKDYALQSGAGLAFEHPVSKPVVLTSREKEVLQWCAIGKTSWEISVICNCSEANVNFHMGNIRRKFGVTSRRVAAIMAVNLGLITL
Description: Additional screens were performed similar to screen described in the initial screen, except assays were performed in 96-well microtiter plates at a total volume of 100 μl. The reporter strain P. putida F117 pKRC12 was grown overnight at 28° C. in LB media, diluted with LB media to achieve an optical density of 0.05 at 600 nm (OD600), and 96 μl of cells were aliquoted to 96-well plates. Compounds were added at a final concentration of 100 nm or as otherwise indicated in each experiment and the bacterial cells were incubated with the compounds for approximately 30 minutes prior to the addition of 3oxoC10HSL or 3oxoC12HSL at a final concentration of 100 nM and 50 nM respectively or as indicated for each experiment. Fluorescence was measured at regular intervals after 3 hours using the Wallac Victor2 plate reader with an excitation wavelength of 485 nm and emission detection at 515 nm. Representative results are presented in FIGS. 6A and B and present the percentage of GFP expression activity as a function of expression of the AHL (3oxoC10 HSL) control. The numbers on the X axis refer to the Chembridge library reference number. Effects on growth of the antagonists were determined by measuring the optical density at 600 nm of growing bacterial cultures P. putida F 117 pKRC 12. […] (Reference for P. putida F117 pKRC12: Steidle, A., K. Sigl, R. Schuhegger, A. Ihring, M. Schmid, S. Gantner, M. Stoffels, K. Riedel, M. Givskov, A. Hartmann, C. Langebartels, and L. Eberl. 2001. Visualization of N-acylhomoserine lactone-mediated cell-cell communication between bacteria colonizing the tomato rhizosphere. Appl Environ Microbiol 67:5761-70). […]
This example presents representative results of experiments designed to test the activity of putative antagonists when challenged with different concentrations of synthetic AHLs, particularly 3oxoC12HSL. Assays were conducted with P. putida F117 pKRC12 reporter strain as described in the methods for secondary screens.
Following the initial screens to identify strong antagonists of the LasR transcriptional activator, further investigation of additional compounds in the Chembridge library was carried out. In particular, the experiments described in Example 1 identified three compounds that shared a thiocarbamate structure, as also shown in FIG. 16. To further investigate structure-activity relationships, the inventors examined the antagonist activity of 19 additional compounds with related thiocarbamate structures, using the procedures described in Example 1. The results are presented in Table 4, expressed as the percent activity of the AHL induced control. The % activity represents the relative fluorescence, which is the fluorescence observed in each assay divided by bacterial cell density as measured by absorbance at 600 nm. Compounds were assayed at a concentration of 10 μM. Assays were conducted with P. putida F117 pKRC12 reporter strain as described in the methods for secondary screens. The 3oxoC10HSL and 3oxoC12HSL were assayed at concentrations of 100 nM and 50 nM, respectively.

T1 sequence (P33905 whole entry): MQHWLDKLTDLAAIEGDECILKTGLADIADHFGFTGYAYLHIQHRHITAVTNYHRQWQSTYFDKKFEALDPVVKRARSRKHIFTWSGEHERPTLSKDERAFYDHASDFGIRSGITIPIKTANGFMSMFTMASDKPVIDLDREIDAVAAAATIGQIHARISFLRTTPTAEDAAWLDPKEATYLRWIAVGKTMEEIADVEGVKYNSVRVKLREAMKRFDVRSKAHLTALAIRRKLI

Compound	Induction of β-Galactosidase (blue zone), control (TraR)	Activation of quorum sensing (violacein production), control (CviR)	% Activity of AHL Standard, 3 oxo C10HSL [1] [%]	% Activity of AHL Standard, 3 oxo C12HSL [1] [%]
CCCC(=O)CC(=O)N[C@H]1CCOC1=O [Compound 3oxoC6HSL, N-(3-oxohexanoyl)-L-homoserine lactone]	activated gene expression	activated gene expression		
NC(=O)SCC(=O)Nc1ccc(Br)cc1 [Compound 15]			39.00	70.10
COc1ccc(NC(=O)CSC(N)=O)c(OC)c1 [Compound 16]			35.00	70.90
NC(=O)SCC(=O)Nc1cccc(I)c1 [Compound 17]			67.20	81.20
Cc1ccc(NC(=O)CSC(N)=O)c(C)c1 [Compound 18]			40.00	82.30
NC(=O)SCC(=O)Nc1ccccc1O [Compound 19]			38.60	82.90
NC(=O)SCC(=O)Nc1ccc(Cl)c(Cl)c1 [Compound 20]			40.50	87.70
NC(=O)SCC(=O)Nc1cccc(Cl)c1 [Compound 21]			43.30	88.50
COC(=O)c1ccc(NC(=O)CSC(N)=O)cc1 [Compound 22]			57.60	101.0
